The target of one test is T1, BRD4 (BD1) (Homo sapiens, UniProt O60885).
T1 construct: with relatively long constructs also being possible, preferably amino acids 44-168; made in house; host or cells: E. coli
Description: Binding assay BRD4/acetylated peptide H4 (TR-FRET protein-protein interaction assay). The gist of the method: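 His6-BRD4 BD1 (aa 67-152, E. coli), usually 10 nM, with biotinylated tetra-acetylated H4 peptide in HEPES pH 7.5 buffer; 11 compound concentrations 0.1 nM–20 μM in duplicate, 10 min preincubation, 1 h at 22 °C then ≥3 h at 4 °C. TR-FRET 665/620 ratio; IC50 by 4-parameter fit.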
On the technique in general: TR-FRET usually uses a lanthanide donor and a delayed reading to cut background.

The subject of the next test is MOLM-13 cells. Description: Cell proliferation assay (alamarBlue), MOLM-13. Type of test: cell-based. To be noted: Homo sapiens, 96 hours incubation, inhibition of cell proliferation. The gist of the method: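 Cells in RPMI1640/10% FCS read by alamarBlue fluorescence (ex 530, em 590 nm) after overnight 37 °C incubation, then treated at 1E-5 to 1E-8 M for 96 h. Pre-treatment values subtracted from endpoint values and compared with buffer-only wells; IC50 is 50% proliferation inhibition.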

Some results are limits rather than exact numbers.

Usually IC50 stands for the concentration at which inhibition is half-maximal. Read a high IC50 as a need for much substance. For `CNC(=O)N1N=C(c2ccc(-c3ccc(C(F)(F)F)nc3)cc2)c2cc(OC)c(OC)cc2C[C@@H]1C` [Example 50.1, (4S)-7,8-dimethoxy-N,4-dimethyl-1-{4-[6-(trifluoromethyl)pyridin-3-yl]phenyl}-4,5-dihydro-3H-2,3-benzodiazepine-3-carboxamide], the IC50 was found to be 110 nM at BRD4 (BD1) and 370 nM in the test on MOLM-13 cells.
For `CNC(=O)N1N=C(c2ccc(N3CC(F)C3)cc2)c2cc(OC)c(OC)cc2C[C@H]1C` [Example 129.1, (4R)-1-[4-(3-fluoroazetidin-1-yl)phenyl]-7,8-dimethoxy-N,4-dimethyl-4,5-dihydro-3H-2,3-benzodiazepine-3-carboxamide], in that order: 6620 nM and above 10000 nM.
Turning to `CNC(=O)N1N=C(c2ccc(-n3ncnc3C)cc2)c2cc(OC)c(OC)cc2CC1C` (racemic) [Example 153, (±)-7,8-dimethoxy-N,4-dimethyl-1-[4-(5-methyl-1H-1,2,4-triazol-1-yl)phenyl]-4,5-dihydro-3H-2,3-benzodiazepine-3-carboxamide], the IC50 at BRD4 (BD1) amounted to 110 nM; with MOLM-13 cells, 480 nM.
For `CNC(=O)N1N=C(c2ccc(N3CCN(C)CC3)cc2)c2cc(OC)c(OC(F)F)cc2C[C@@H]1C` [Example 163.2, (4S)-7-(difluoromethoxy)-8-methoxy-N,4-dimethyl-1-[4-(4-methylpiperazin-1-yl)phenyl]-4,5-dihydro-3H-2,3-benzodiazepine-3-carboxamide], in that order: 30 nM and 260 nM.
In the case of `CNC(=O)N1N=C(c2ccc(-c3ccc(C)cc3)cc2)c2cc(OC)c(OC)cc2CC1C` (racemic) [Example 64, (±)-7,8-dimethoxy-N,4-dimethyl-1-(4′-methylbiphenyl-4-yl)-4,5-dihydro-3H-2,3-benzodiazepine-3-carboxamide], the IC50 at BRD4 (BD1) was determined as 110 nM; in the test with MOLM-13 cells it was 880 nM.
The corresponding values for `CNC(=O)N1N=C(c2ccc(Cl)cc2)c2cc(N3CCS(=O)(=O)CC3)c(OC(F)(F)F)cc2CC1C` (racemic) [Example 216, (±)-1-(4-chlorophenyl)-8-(1,1-dioxidothiomorpholin-4-yl)-N,4-dimethyl-7-(trifluoromethoxy)-4,5-dihydro-3H-2,3-benzodiazepine-3-carboxamide] are 520 nM and 1030 nM.
For `CNC(=O)N1N=C(c2ccc(-c3c(C)noc3C)cc2)c2cc(OC(F)(F)F)c(Cl)cc2C[C@H]1C` [Example 156.2, (4R)-7-Chloro-1-[4-(3,5-dimethylisoxazol-4-yl)phenyl]-N,4-dimethyl-8-(trifluoromethoxy)-4,5-dihydro-3H-2,3-benzodiazepine-3-carboxamide], in that order: 2240 nM and above 10000 nM.
With `CNC(=O)N1N=C(c2ccc(-c3c(C)noc3C)cc2)c2cc(OC)c(OC(F)F)cc2C[C@H]1C` [Example 162.2, (4R)-7-(difluoromethoxy)-1-[4-(3,5-dimethylisoxazol-4-yl)phenyl]-8-methoxy-N,4-dimethyl-4,5-dihydro-3H-2,3-benzodiazepine-3-carboxamide], the IC50 at BRD4 (BD1) turned out to be 560 nM; with MOLM-13 cells, 1680 nM.
`CNC(=O)N1N=C(c2ccc(N3CCC(C)(O)CC3)cc2)c2cc(OC)c(OC)cc2C[C@H]1C` [Example 188.1, (4R)-1-[4-(4-hydroxy-4-methylpiperidin-1-yl)phenyl]-7,8-dimethoxy-N,4-dimethyl-4,5-dihydro-3H-2,3-benzodiazepine-3-carboxamide]: the IC50 worked out at 270 nM at BRD4 (BD1) and 1130 nM in the test on MOLM-13 cells.
For `CNC(=O)N1N=C(c2ccc(N3CCN(C)CC3)cc2)c2cc(NC(C)=O)ccc2CC1C` (racemic) [Example 172, (±)-8-Acetamido-N,4-dimethyl-1-[4-(4-methylpiperazin-1-yl)phenyl]-4,5-dihydro-3H-2,3-benzodiazepine-3-carboxamide], in that order: 130 nM and 1910 nM.
The corresponding values for `CNC(=O)N1N=C(c2ccc(-c3cnc(C)n3C)cc2)c2cc(OC)c(OC)cc2CC1C` (racemic) [Example 47, (±)-1-[4-(1,2-dimethyl-1H-imidazol-5-yl)phenyl]-7,8-dimethoxy-N-dimethyl-4,5-dihydro-3H-2,3-benzodiazepine-3-carboxamide] are 110 nM and 530 nM.
Consider `CNC(=O)N1N=C(c2ccc(N3CCOCC3)cc2)c2cc(NC(C)=O)ccc2CC1C` (racemic) [Example 171, (±)-8-Acetamido-N,4-dimethyl-1-[4-(morpholin-4-yl)phenyl]-4,5-dihydro-3H-2,3-benzodiazepine-3-carboxamide], for which the IC50 on BRD4 (BD1) is 120 nM; in the test on MOLM-13 cells it was 1910 nM.
Turning to `CNC(=O)N1N=C(c2ccc(-c3c(C)noc3C)cc2)c2cc(OC(F)(F)F)c(Cl)cc2CC1C` (racemic) [Example 156, (±)-7-Chloro-1-[4-(3,5-dimethylisoxazol-4-yl)phenyl]-N,4-dimethyl-8-(trifluoromethoxy)-4,5-dihydro-3H-2,3-benzodiazepine-3-carboxamide], the values for the IC50 at BRD4 (BD1) and in the test with MOLM-13 cells were 230 nM and 790 nM, respectively.
For `CNC(=O)N1N=C(c2ccc(N3CCCN(C)CC3=O)cc2)c2cc(OC)c(OC)cc2C[C@@H]1C` [Example 229, (4S)-7,8-dimethoxy-N,4-dimethyl-1-[4-(4-methyl-2-oxo-1,4-diazepan-1-yl)phenyl]-4,5-dihydro-3H-2,3-benzodiazepine-3-carboxamide], in that order: 70 nM and 140 nM.
For `CNC(=O)N1N=C(c2ccc(N3CC(C)OCC3=O)cc2)c2cc(OC)c(OC)cc2CC1C` (racemic) [Example 41, (±)-7,8-dimethoxy-N,4-dimethyl-1-[4-(2-methyl-5-oxomorpholin-4-yl)phenyl]-4,5-dihydro-3H-2,3-benzodiazepine-3-carboxamide], in that order: 260 nM and 1350 nM.
For `CNC(=O)N1N=C(c2ccc(-c3ccc(NS(C)(=O)=O)cc3)cc2)c2cc(OC)c(OC)cc2CC1C` (racemic) [Example 70, (±)-7,8-dimethoxy-N,4-dimethyl-1-{4′-[(methylsulphonyl)amino]biphenyl-4-yl}-4,5-dihydro-3H-2,3-benzodiazepine-3-carboxamide], in that order: 40 nM and 300 nM.
For `CNC(=O)N1N=C(c2ccc(F)c(N3CC(F)(F)C3)c2)c2cc(OC)c(OC)cc2CC1C` (racemic) [Example 145, (±)-1-[3-(3,3-difluoroazetidin-1-yl)-4-fluorophenyl]-7,8-dimethoxy-N,4-dimethyl-4,5-dihydro-3H-2,3-benzodiazepine-3-carboxamide], the concentration for half-maximal inhibition (IC50) on BRD4 (BD1) is 110 nM; in the test with MOLM-13 cells, 830 nM.
The corresponding values for `CNC(=O)N1N=C(c2ccc(-c3c(C)noc3C)cc2)c2cc(OC)c(OC(F)F)cc2C[C@@H]1C` [Example 162.1, (4S)-7-(difluoromethoxy)-1-[4-(3,5-dimethylisoxazol-4-yl)phenyl]-8-methoxy-N,4-dimethyl-4,5-dihydro-3H-2,3-benzodiazepine-3-carboxamide] are 100 nM and 210 nM.
For `CNC(=O)N1N=C(c2ccc(N3CCN(C)C(=O)C3)cc2)c2cc(OC)c(OC)cc2C[C@@H]1C` [Example 138.1, (4S)-7,8-dimethoxy-N,4-dimethyl-1-[4-(4-methyl-3-oxopiperazin-1-yl)phenyl]-4,5-dihydro-3H-2,3-benzodiazepine-3-carboxamide], in that order: 40 nM and 180 nM.
The corresponding values for `CNC(=O)N1N=C(c2ccc(N3CCOCC3=O)cc2)c2cc(OC)c(OC)cc2CC1C` (racemic) [Example 40, (±)-7,8-dimethoxy-N,4-dimethyl-1-[4-(3-oxomorpholin-4-yl)phenyl]-4,5-dihydro-3H-2,3-benzodiazepine-3-carboxamide] are 280 nM and 1470 nM.
Regarding `CNC(=O)N1N=C(c2ccc(-c3ccc(OC)nc3)cc2)c2cc(OC)c(OC)cc2CC1C` (racemic) [Example 66, (±)-7,8-dimethoxy-1-[4-(6-methoxypyridin-3-yl)phenyl]-N,4-dimethyl-4,5-dihydro-3H-2,3-benzodiazepine-3-carboxamide], the IC50 on BRD4 (BD1) worked out at 70 nM; in the test on MOLM-13 cells, 630 nM.
For `CNC(=O)N1N=C(c2ccc(-n3cnnn3)cc2)c2cc(OC)ccc2C[C@@H]1C` [Example 30, (4S)-8-Methoxy-N,4-dimethyl-1-[4-(1H-tetrazol-1-yl)phenyl]-4,5-dihydro-3H-2,3-benzodiazepine-3-carboxamide], in that order: 230 nM and 790 nM.
The corresponding values for `CNC(=O)N1N=C(c2ccc(-c3nnc(C)o3)cc2)c2cc(OC)c(OC)cc2CC1C` (racemic) [Example 247, (±)-7,8-Dimethoxy-N,4-dimethyl-1-[4-(5-methyl-1,3,4-oxadiazol-2-yl)phenyl]-4,5-dihydro-3H-2,3-benzodiazepine-3-carboxamide] are 190 nM and 570 nM.
`CNC(=O)N1N=C(c2ccc(N3CCN(C)CC3)cc2)c2cc(OC)c(OC(F)(F)F)cc2CC1C` (racemic) [Example 219, (±)-8-methoxy-N,4-dimethyl-1-[4-(4-methylpiperazin-1-yl)phenyl]-7-(trifluoromethoxy)-4,5-dihydro-3H-2,3-benzodiazepine-3-carboxamide]: the values for the IC50 at BRD4 (BD1) and with MOLM-13 cells were 370 nM and 570 nM, respectively.
In the case of `CNC(=O)N1N=C(c2ccc(Cl)cc2)c2ccc(-c3cn(C)nn3)cc2CC1C` (racemic) [Example 243, (±)-1-(4-chlorophenyl)-N,4-dimethyl-7-(1-methyl-1H-1,2,3-triazol-4-yl)-4,5-dihydro-3H-2,3-benzodiazepine-3-carboxamide], the IC50 came to 320 nM at BRD4 (BD1) and 340 nM in the test with MOLM-13 cells.

The record behind these values is patent publication US9890147B2 (BAYER PHARMA AKTIENGESELLSCHAFT, priority 2012, dated 2018).
